ChEMBL document CHEMBL3124856, “Design, synthesis, and pharmacological evaluation of a novel series of pyridopyrazine-1,6-dione γ-secretase modulators” (J Med Chem, 2014)
The source made the active and inactive calls. The calls are words filed in the database; no cut-off is given here.

Assays:
MDR1 (human) = assay: Efflux ratio of permeability in MDCK cells expressing human MDR1; type: ADME, cell-based, Canis lupus familiaris; conditions: dog
Gamma-secretase [1] = assay: Modulation of gamma-secretase (unknown origin) expressed in CHO cells overexpressing human wild type APP assessed as reduction of amyloid beta 42 level after 24 hrs by ELISA; type: cell-based
[2] = Apparent intrinsic clearance in human liver microsomes; type: ADME; conditions: read-out: CLH(app)
Gamma-secretase [3] = assay: Inhibition of gamma-secretase in human HeLa cells assessed as reduction of amyloid beta 42 level preincubated for 30 mins measured after 1.5 hrs by Western blotting analysis; type: cell-based
[4] = biological target: T1, Gamma-secretase (Homo sapiens) (UniProt Q96BI3+Q9NZ42+Q8WW43+P49768+Q92542+P49810); assay: Binding affinity to gamma-secretase in human HeLa cells assessed as labeling of PS1-NTF at 5 uM by Western blot analysis in presence of GSI-L458; type: cell-based
[5] = biological target: T1, Gamma-secretase (Homo sapiens); assay: Binding affinity to gamma-secretase in human HeLa cells assessed as labeling of PS1-NTF at 5 uM by Western blot analysis; type: cell-based
[6] = biological target: T1, Gamma-secretase (Homo sapiens); assay: Binding affinity to gamma-secretase in human HeLa cells assessed as labeling of PS1-NTF at 5 uM by Western blot analysis in presence of (S)-1-(1-(4-fluorophenyl)ethyl)-3-(3-methoxy-4-(4-methyl-1H-imidazol-1-yl)benzylidene)piperidin-2-one; type: cell-based
[7] = biological target: T1, Gamma-secretase (Homo sapiens); assay: Binding affinity to gamma-secretase in human HeLa cells assessed as labeling of PS1-NTF at 5 uM by Western blot analysis in presence of 2-[2-(7-Fluoronaphthalen-1-yloxy)ethyl]-7-(4-methyl-1H-imidazol-1-yl)-3,4-dihydro-1H-pyrido[1,2-a]pyrazine-1,6(2H)-dione; type: cell-based
[8] = Apparent intrinsic clearance in rat liver microsomes; type: ADME; conditions: read-out: CLH(app)

efflux ratio (MDR1 (human)) | IC50 (Gamma-secretase [1]) [µM] | CLint scaled [2] [mL/min/kg] | IC50 (Gamma-secretase [3]) [µM] | Activity [4] | Activity [5] | Activity [6] | Activity [7] | CLint scaled [8] [mL/min/kg] | Structure (SMILES)
1 | > 15.8 | 32.7 | – | – | – | – | – | – | COc1cc2c(=O)n(CCc3cccc(Cl)c3)ccc2cc1-n1cnc(C)c1
– | – | – | 0.135 | inactive | Active | inactive | Active | – | C#CCCCOc1ccc(C(=O)c2cccc(OCCN3CCn4c(ccc(-n5cnc(C)c5)c4=O)C3=O)c2)cc1
1.5 | 0.015 | 30 | – | – | – | – | – | 469 | Cc1cn(-c2ccc3n(c2=O)CCN(CCOc2cccc4ccc(F)cc24)C3=O)cn1
1.2 | 3.4 | 36.1 | – | – | – | – | – | – | COc1c(-n2cnc(C)c2)ccc2c(=O)n(CCc3cccc(Cl)c3)ccc12
